How the values were obtained:
Format in all cases: cell-based
CWR22RV1 cells = assay: Cytotoxicity assay (AlamarBlue, 72 hours); conditions: 72 hours treatment, concentration not given
Experimental: (§1) Compound stock solutions of 10 mM were prepared with 100% DMSO and shaken for 10-15 seconds. The compound stock solutions were centrifuged at 12000 rpm (13523 rcf.) for 5 minutes and record the turbidity or precipitation state with a photo snapshot. The compound stock solutions were resuspended by shaking for 10-15 seconds, and serially diluted with 100% DMSO solution to make the compound concentration to 1000 μM, then to 100, 10, and 1 μM, and then 10-fold diluted with medium to 100, 10, 1, 0.1 μM (final 10% DMSO/medium) to complete compound test sample preparation. Compound treatment was performed by adding 10 μL of compound test sample to cells in each well of a 96-well plate (final 1% DMSO/medium).
(§2) Cells (CWR22Rv1 cells or VCaP cells) were cultured in RPMI-1640 medium supplemented with 10% fetal bovine serum, 10,000 U/mL penicillin and 10,000 μg/mL streptomycin. Cells were cultured at 37° C. in a humidified 5% CO2 incubator.
(§3) Cells were seeded in a 96-well plate (1×10^4 cells/well). 10 μL of the above compound test sample was added to each well of the 96-well plate on next day. After 72 hours of compound treatment, 10 μL of AlamaBlue reagent was added to each of 96 wells and incubated for 4 hours. The fluorescence value at Ex/Em=560/590 nm was read with a microplate reader, and the cytotoxicity (%) was calculated.
(§4) According to the above method, the compounds prepared above were subjected to cytotoxicity test with CWR22RV1 cells and VCaP cells.

[1] = tested on: full-length androgen receptor; assay: Western blot: degradation of full-length androgen receptor in CWR22RV1 cells; conditions: overnight
Experimental: CWR22Rv1 cells were maintained in RPMI medium supplemented with 10% fetal bovine serum and 1% penicillin-streptomycin at 37° C. in a humidified environment with 5% CO2.
CWR22Rv1 (5×10^5 cells) were seeded in each well of a 6-well plate and incubated overnight. Before compound treatment, the medium in the wells was replaced with a new medium. Cells were treated with different concentrations of compound overnight. Subsequently, cells were harvested by adding cold PBS and scraping cells. Cells were lysed according to general procedures and Western blot assays were performed to assess the ability of compounds to degrade full-length androgen receptor or androgen receptor splice variant 7. The cells or cell lysates were kept on ice at all times.
The following reagents were used in this experiment. Phosphate buffered saline (PBS) (Hyclone, SH30028.02), fetal bovine serum (Hyclone, SH30084.23, Lot AC14563276), penicillin-streptomycin solution (Hyclone, SV30010), 0.5% Trypsin-EDTA (Gibco, 15400-054), CST Lysis Buffer (CST-9803), Halt™ Protease and Phosphatase Inhibitor (ThermoFisher, 78442), Coomassie (Bradford) Protein Assay (Coomassie (Bradford) protein assay) (ThermoFisher, 23200), androgen receptor antibody (Cell Siginaling, CST-5153S), GAPDH antibody (Cell Siginaling, CST-5174S), HRP-goat-anti-rabbit (Jackson Immuno Research, 111-035-003), skim milk, SuperSignal West Pico Maximum Sensitivity substrate (ThermoFisher, 34080).
The compound prepared above was analyzed for its ability to degrade full-length androgen receptor and androgen receptor splice variant 7 in CWR22RV1 cells by Western blotting according to the method shown in item B.3-2 above.

VCaP cells = assay: Cytotoxicity assay (AlamarBlue, 72 hours); conditions: 72 hours treatment, concentration not given
Experimental: as §1, §2, §3, §4

[2] = compound concentration 0.1 (unit not given)
[3] = compound concentration 1 (unit not given)
[4] = compound concentration 10 (unit not given)

Structure (SMILES): Cc1ncsc1-c1ccc(CNC(=O)C2CC(O)CN2C(=O)C(NC(=O)CC2O[C@H](COc3ccc(C4CCN(C5=Nn6c(nnc6C(F)(F)F)CC5)CC4)cc3)[C@@H](O)[C@H]2O)C(C)(C)C)cc1 (stereo partly drawn) [Compound 29, 1-(2-(2-((3R,4S,5R)-3,4-dihydroxy-5-((4-(1-(3-(trifluoromethyl)-7,8-dihydro-[1,2,4]triazolo[4,3-b]pyridazin-6-yl)piperidin-4-yl)phenoxy)methyl)tetrahydrofuran-2-yl)acetamido)-3,3-dimethylbutanoyl)-4-hydroxy-N-(4-(4-methylthiazol-5-yl)benzyl)pyrrolidine-2-carboxamide]
- Cytotoxicity, CWR22RV1 cells (cell viability %) (CWR22RV1 cells): − (<80% : −)
- Degradation ability for full-length androgen receptor (residual rate %) [1, 2]: + (60-80%: +)
- Degradation ability for full-length androgen receptor (residual rate %) [1, 3]: − (>80%; −)
- Degradation ability for full-length androgen receptor (residual rate %) [1, 4]: − (>80%; −)

Structure (SMILES): Cc1cc([C@H](C(=O)N2C[C@H](O)C[C@H]2C(=O)N[C@@H](CC(=O)NCCOCCCCOc2ccc(C3CCN(C4=Nn5c(nnc5C(F)(F)F)CC4)CC3)cc2)c2ccc(-c3scnc3C)cc2)C(C)C)on1 [Compound 6, (2S,4R)-4-hydroxy-1-((R)-3-methyl-2-(3-methylisoxazol-5-yl)butanoyl)-N—((S)-1-(4-(4-methylthiazol-5-yl)phenyl)-3-oxo-3-(2-(4-(4-(1-(3-(trifluoromethyl)-7,8-dihydro-[1,2,4]triazolo[4,3-b]pyridazin-6-yl)piperidin-4-yl)phenoxy)butoxy)ethylamino)propyl)pyrrolidine-2-carboxamide]
- Cytotoxicity, CWR22RV1 cells (cell viability %) (CWR22RV1 cells): − (<80% : −)

Structure (SMILES): Cc1ncsc1-c1ccc(CNC(=O)[C@@H]2C[C@H](O)CN2C(=O)[C@@H](NC(=O)COCCCCOc2ccc(C3CCN(C4=Nn5c(nnc5-c5ccc(C(F)(F)F)cc5)CC4)CC3)cc2)C(C)(C)C)cc1 [Compound 8, (2S,4S)-1-((S)-3,3-dimethyl-2-(2-(4-(4-(1-(3-(4-(trifluoromethyl)phenyl)-7,8-dihydro-[1,2,4]triazolo[4,3-b]pyridazin-6-yl)piperidin-4-yl)phenoxy)butoxy)acetamido)butanoyl)-4-hydroxy-N-(4-(4-methylthiazol-5-yl)benzyl)pyrrolidine-2-carboxamide]
- Cytotoxicity, CWR22RV1 cells (cell viability %) (CWR22RV1 cells): +++ (<40% : +++)
- Degradation ability for full-length androgen receptor (residual rate %) [1, 2]: − (>80%; −)
- Degradation ability for full-length androgen receptor (residual rate %) [1, 3]: + (60-80%: +)
- Degradation ability for full-length androgen receptor (residual rate %) [1, 4]: +++ (<40%: +++)

Structure (SMILES): Cc1ncsc1-c1ccc(CNC(=O)[C@@H]2C[C@H](O)CN2C(=O)[C@@H](NC(=O)CCCN2CCC(C#Cc3ccc(C4CCN(C5=Nn6c(nnc6C(F)(F)F)CC5)CC4)cc3)CC2)C(C)(C)C)cc1 [Compound 13, (2S,4S)-1-((S)-3,3-dimethyl-2-(4-(4-((4-(1-(3-(trifluoromethyl)-7,8-dihydro-[1,2,4]triazolo[4,3-b]pyridazin-6-yl)piperidin-4-yl)phenyl)ethynyl)piperidin-1-yl)butanamido)butanoyl)-4-hydroxy-N-(4-(4-methylthiazol-5-yl)benzyl)pyrrolidine-2-carboxamide]
- Cytotoxicity, CWR22RV1 cells (cell viability %) (CWR22RV1 cells): +++ (<40% : +++)
- Cytotoxicity, VCaP cells (cell viability %) (VCaP cells): +++ (<40% : +++)

Structure (SMILES): Cc1ncsc1-c1ccc(CNC(=O)[C@@H]2C[C@H](O)CN2C(=O)[C@@H](NC(=O)COCCCOCCNC(=O)COc2ccc(C3CCN(C4=Nn5c(nnc5C(F)(F)F)CC4)CC3)cc2)C(C)(C)C)cc1 [Compound 3, (2S,4S)-1-((S)-2-tert-butyl-4,14-dioxo-15-(4-(1-(3-(trifluoromethyl)-7,8-dihydro-[1,2,4]triazolo[4,3-b]pyridazin-6-yl)piperidin-4-yl)phenoxy)-6,10-dioxa-3,13-diazapentadecane)-4-hydroxy-N-(4-(4-methylthiazol-5-yl)benzyl)pyrrolidine-2-carboxamide]
- Cytotoxicity, CWR22RV1 cells (cell viability %) (CWR22RV1 cells): ++ (40-60% : ++)

Structure (SMILES): Cc1ncsc1-c1ccc(CNC(=O)[C@@H]2C[C@H](O)CN2C(=O)[C@@H](NC(=O)CCC#Cc2ccc(COc3ccc(C4CCN(C5=Nn6c(nnc6C(F)(F)F)CC5)CC4)cc3)cc2)C(C)(C)C)cc1 [Compound 2, (2S,4S)-1-((S)-3,3-dimethyl-2-(5-(4-((4-(1-(3-(trifluoromethyl)-7,8-dihydro-[1,2,4]triazolo[4,3-b]pyridazin-6-yl)piperidin-4-yl)phenoxy)methyl)phenyl)pent-4-ynamido)butanoyl)-4-hydroxy-N-(4-(4-methylthiazol-5-yl)benzyl)pyrrolidine-2-carboxamide]
- Cytotoxicity, CWR22RV1 cells (cell viability %) (CWR22RV1 cells): + (60-80% : +)

Structure (SMILES): Cc1ncsc1-c1ccc(CNC(=O)[C@@H]2C[C@H](O)CN2C(=O)[C@@H](NC(=O)CCOCCOCCN2CCN(c3ccc(C#Cc4ccc(C5CCN(C6=Nn7c(nnc7C(F)(F)F)CC6)CC5)cc4)cn3)CC2)C(C)(C)C)cc1 [Compound 4, (2S,4S)-1-((S)-3,3-dimethyl-2-(3-(2-(2-(4-(5-((4-(1-(3-(trifluoromethyl)-7,8-dihydro-[1,2,4]triazolo[4,3-b]pyridazin-6-yl)piperidin-4-yl)phenyl)ethynyl)pyridin-2-yl)piperazin-1-yl)ethoxy)ethoxy)propanamido)butanoyl)-4-hydroxy-N-(4-(4-methylthiazol-5-yl)benzyl)pyrrolidine-2-carboxamide]
- Cytotoxicity, CWR22RV1 cells (cell viability %) (CWR22RV1 cells): + (60-80% : +)

Structure (SMILES): Cc1ncsc1-c1ccc(CNC(=O)[C@@H]2C[C@H](O)CN2C(=O)[C@@H](NC(=O)COCCCCOc2ccc(C3CCN(C4=Nn5c(nnc5C(F)(F)F)CC4)CC3)cc2)C(C)(C)C)c(O)c1 [Compound 35, (2S,4S)-1-((S)-3,3-dimethyl-2-(2-(4-(4-(1-(3-(trifluoromethyl)-7,8-dihydro-[1,2,4]triazolo[4,3-b]pyridazin-6-yl)piperidin-4-yl)phenoxy)butoxy)acetamido)butanoyl)-4-hydroxy-N-(2-hydroxy-4-(4-methylthiazol-5-yl)benzyl)pyrrolidine-2-carboxamide]
- Cytotoxicity, CWR22RV1 cells (cell viability %) (CWR22RV1 cells): +++ (<40% : +++)
- Cytotoxicity, VCaP cells (cell viability %) (VCaP cells): +++ (<40% : +++)

Structure (SMILES): Cc1ncsc1-c1ccc(CNC(=O)[C@@H]2C[C@H](O)CN2C(=O)[C@@H](NC(=O)COCCCCCCCOc2ccc(C3CCN(C4=Nn5c(nnc5C(F)(F)F)CC4)CC3)cc2)C(C)(C)C)cc1 [Compound 23, (2S,4S)-1-((S)-3,3-dimethyl-2-(2-((7-(4-(1-(3-(trifluoromethyl)-7,8-dihydro-[1,2,4]triazolo[4,3-b]pyridazin-6-yl)piperidin-4-yl)phenoxy)heptyl)oxy)acetamido)butanoyl)-4-hydroxy-N-(4-(4-methylthiazol-5-yl)benzyl)pyrrolidine-2-carboxamide]
- Cytotoxicity, CWR22RV1 cells (cell viability %) (CWR22RV1 cells): +++ (<40% : +++)
- Cytotoxicity, VCaP cells (cell viability %) (VCaP cells): +++ (<40% : +++)

Structure (SMILES): O=C1CCC(N2Cc3c(C#CCCCCOc4ccc(C5CCN(C6=Nn7c(nnc7C(F)(F)F)CC6)CC5)cc4)cccc3C2=O)C(=O)N1 (stereo not drawn) [Compound 31, 3-(1-oxo-4-(6-(4-(1-(3-(trifluoromethyl)-7,8-dihydro-[1,2,4]triazolo[4,3-b]pyridazin-6-yl)piperidin-4-yl)phenoxy)hex-1-ynyl)isoindolin-2-yl)piperidine-2,6-dione]
- Cytotoxicity, CWR22RV1 cells (cell viability %) (CWR22RV1 cells): + (60-80% : +)
- Cytotoxicity, VCaP cells (cell viability %) (VCaP cells): + (60-80% : +)

Structure (SMILES): Cc1ncsc1-c1ccc(CNC(=O)[C@@H]2C[C@H](O)CN2C(=O)C(NC(=O)CC2O[C@H](CNC(=O)COc3ccc(C4CCN(C5=Nn6c(nnc6C(F)(F)F)CC5)CC4)cc3)[C@@H](O)[C@H]2O)C(C)(C)C)cc1 (stereo partly drawn) [Compound 7, 1-(2-(2-((3R,4S,5R)-3,4-dihydroxy-5-((2-(4-(1-(3-(trifluoromethyl)-7,8-dihydro-[1,2,4]triazolo[4,3-b]pyridazin-6-yl)piperidin-4-yl)phenoxy)acetamido)methyl)tetrahydrofuran-2-yl)acetamido)-3,3-dimethylbutanoyl)-4-hydroxy-N-(4-(4-methylthiazol-5-yl)benzyl)pyrrolidine-2-carboxamide]
- Cytotoxicity, CWR22RV1 cells (cell viability %) (CWR22RV1 cells): − (<80% : −)
- Degradation ability for full-length androgen receptor (residual rate %) [1, 2]: − (>80%; −)
- Degradation ability for full-length androgen receptor (residual rate %) [1, 3]: − (>80%; −)
- Degradation ability for full-length androgen receptor (residual rate %) [1, 4]: − (>80%; −)

— patent publication US12152035B2, “Androgen receptor binding molecule and use thereof” (Industrial Technology Research Institute, priority 2020, dated 2024)
